US20190364890A1, “SYNERGISTIC COMBINATION OF ORTHO-PHENYLPHENOL AND BIS-(3-AMINOPROPYL)DODECYLAMINE” (Dow Global Technologies LLC, priority 2016, published 2019)

Columns and labels:
Assay in all cases: Minimum Inhibitory Concentration (MIC) test / synergy testing
Assay type in all cases: cell-based
[1] = tested on: Pseudomonas aeruginosa DSM# 939; details: single biocide, TSB medium pH 5, 30° C., 48 hours
Procedure: (§1) The synergism of the biocides combination of the present invention was determined using the Minimum Inhibitory (MIC) test method described by Kull, F. C., et. al in Applied Microbiology 9:538-541 (1961).
(§2) The Minimum Inhibitory Concentration Test (MIC) is designed to evaluate the lowest concentration of a biocide, biocide blend or biocide combination to prevent bacteria growing in a defined broth.
(§3) The MICs of the single biocides NaOPP and BDA as well as of combinations of these two actives (all in TSB) in 3 different ratios (1:1; 10:1, 100:1) were estimated against each of the 4 microorganisms Staphylococcus aureus (DSMZ#799), Pseudomonas aeruginosa (DSMZ#939) and Candida albicans (DSMZ#1386), Pseudomonas putida, respectively.
(§4) The synergy testing was carried out as follows: • 1. The test was executed with a Hamilton MLStarPlus robot using automated turbidity reading with BioTek Synergy H4 plate reader. • 2. Biocide systems were prepared in 2.2 ml deep well plates by transferring and diluting biocides from stock solutions to first rows of the plates. The concentrations of biocides in stock bottles were adjusted to be 20× more concentrated than the highest desired concentration. • 3. Then 15 subsequent serial dilutions with dilution factor 1.3 were performed resulting in 16 different concentrations for each system. • 4. In the next step serially diluted biocide systems were transferred to the media blocks containing 850 μl of TSB medium adjusted to pH 5. For each biocide system 100 μl was transferred to the media, resulting in 950 μl of final volume of media+biocides and 9.5 times dilution of the biocides from the biocide plate. At this point, the concentrations of all biocides in media were 1.053×final concentration. • 5. After preparation and mixing of the described systems, 4 aliquots of 190 μl were prepared in 96-well microtiter plates. • 6. Preparation of the microbe suspension:
(§5) • The culture was maintained as a glycerol stock at −80° C. in cryovials. A cryovial was thawed and then 100 μl spread on a TSA agar plate. After incubation for 1 day at 30° C. the bacteria were harvested with buffer at pH 7.3. A total viable count on TSA plate was carried out and bacterial suspension was diluted in buffer in order to deliver ˜2×10^7 CFU/ml.
(§6) • The cultures were maintained as glycerol stocks at −80° C. in cryovials, are thawed and then 100 μl spread on MEA (malt extract agar) petri dishes. • The yeast strain plates were incubated at 28° C. for 1-2 days then harvested with buffer pH 5.0. • Based on total viable count results, the inoculum was prepared. • 7. Each test sample (190 μl) was inoculated with the 10 μl of microbe suspension to provide a level of ˜1×10^6 CFU/ml of the bacteria species and ˜1×10^5 CFU/ml of the yeast species. • 8. The test samples were mixed and incubated at 30° C. for 2 days (48 hours) when tested against bacteria and 3 days (72 hours), respectively, when tested against yeast. • 9. Growth of the micro-organisms leads to turbidity after incubation, clarity indicates no growth. Reading of the results was carried out by measuring absorbance at 600 nm for each sample at the beginning of the test (tzero) and after incubation (tendpoint). tendpoint was chosen at 48 hours for bacteria and 72 hours for yeast. The difference in absorbance between tendpoint and tzero was used to assign a score (“1” if Δ>0.2, confirming growth, and “0” if Δ≤0.2, confirming no growth) from which the MIC values were derived.

Pseudomonas putida = details: single biocide, TSB medium pH 5, 30° C., 48 hours
Procedure: as §1, §2, §3, §4, §5, §6

[2] = tested on: Staphylococcus aureus DSM# 799; details: single biocide, TSB medium pH 5, 30° C., 48 hours
Procedure: as §1, §2, §3, §4, §5, §6

[3] = tested on: Candida albicans DSM# 1386; details: single biocide, TSB medium pH 5, 30° C., 72 hours
Procedure: as §1
The Minimum Inhibitory Concentration Test (MIC) is designed to evaluate the lowest concentration of a biocide, biocide blend or biocide combination to prevent bacteria growing in a defined broth. […]
The synergy testing was carried out as follows: • 1. The test was executed with a Hamilton MLStarPlus robot using automated turbidity reading with BioTek Synergy H4 plate reader. • 2. […]
• The cultures were maintained as glycerol stocks at −80° C. in cryovials, are thawed and then 100 μl spread on MEA (malt extract agar) petri dishes. • The yeast strain plates were incubated at 28° C. for 1-2 days then harvested with buffer pH 5.0. • Based on total viable count results, the inoculum was prepared. • 7. […] Reading of the results was carried out by measuring absorbance at 600 nm for each sample at the beginning of the test (tzero) and after incubation (tendpoint). tendpoint was chosen at 48 hours for bacteria and 72 hours for yeast. The difference in absorbance between tendpoint and tzero was used to assign a score (“1” if Δ>0.2, confirming growth, and “0” if Δ≤0.2, confirming no growth) from which the MIC values were derived.

Row | Structure (SMILES) | MIC ([1]; Pseudomonas aeruginosa, DSM939, read-out: MIC results for single biocides) [µg/mL] | MIC (Pseudomonas putida; Pseudomonas putida, read-out: MIC results for single biocides) [µg/mL] | MIC ([2]; Staphylococcus aureus, DSM799, read-out: MIC results for single biocides) [µg/mL] | MIC ([3]; Candida albicans, DSM1386, read-out: MIC results for single biocides) [µg/mL] | MIC results for single biocides [1] [ppm] | MIC results for single biocides (Pseudomonas putida) [ppm] | MIC results for single biocides [2] [ppm] | MIC results for single biocides [3] [ppm]
1 | CCCCCCCCCCCCN(CCCN)CCCN [BDA, bis-(3-aminopropyl)dodecylamine] | 200 | 200 | 91 | ≥ 260 |  |  |  | 
2 | [Na+].[O-]c1ccccc1-c1ccccc1 [NAOPP, sodium ortho-phenylphenate] |  |  |  |  | 167 | 283 | 129 | 167
